Legend:
[1] = Protocol 136: body weight, adverse events and toxicity; format: in vivo, B6-huCEA mice
Text: (§1) Primary solid xenografts were established in each B6-huCEA or huCEACAM5 mouse on study day 0 through subcutaneous (SC) or intrapancreatic injection of carcinoembryonic antigen (CEA)-expressing tumor cells. […] Indications of pain, distress, or discomfort include, but are not limited to, acute body weight (BW) loss, scruffy fur, diarrhea, hunched posture, pale skin, and reluctance to move. Poor SC tumor status (e.g. ulceration, teeth marks, or open wounds) may also prompt euthanasia; in the orthotopic model, abdominal swelling indicates increasing tumor burden, which may prompt euthanasia.
(§2) SC tumor volumes were estimated through manual calipering 3 times per week, calculated according to the formula: volume 0.5× length×width^2. Additional tumor measurements were made as needed depending on the tumor growth rate. In the orthotopic model, the tumor progress was assessed regularly through bioluminescence imaging (BLI). The BW of the animals was measured at least 3 times per week, with additional measurements as needed depending on the health status. Mice whose BW loss exceeded 20% of their initial BW or whose tumor volume reached 3000 mm^3 (Protocols 119, 136, 150) or 2000 mm^3 (Protocol 195) were euthanized immediately.
No mice were euthanized due to acute post-injection BW loss; 1 tumor-free CEA-PRIT mouse was euthanized on day 117 after a sudden decline in overall status. […]

[2] = Protocol 119: body weight, adverse events and toxicity; format: in vivo
[3] = Protocol 195: body weight, adverse events and toxicity; format: in vivo
[4] = Protocol 150: body weight, adverse events and toxicity; format: in vivo
Text: as §1, §2
No mice were euthanized due to acute post-injection BW loss.
Reactions included sluggish behaviour, somnolence, and death in 1/14 mice. […]

Which results are given for `NC(=O)CN1CCN(CC(N)=O)CCN(CC(N)=O)CCN(CC(N)=O)CC1.[212Pb+2]` [^212Pb-DOTAM]?
body weight change [1]: transient weight loss in irradiated mice; body weight change [2]: transient weight loss in irradiated mice; body weight change [3]: did not cause any significant weight loss by itself; body weight change [4]: transient weight loss in irradiated mice

Source: patent publication US20240173442A1, “COMBINATION THERAPY” (Hoffmann-La Roche Inc., priority 2021, published 2024)
